Measurements reported in PubChem BioAssay AID449762 (Southern Research Specialized Biocontainment Screening …, 2010).
pIC50: −log10 of the molar value. Records with an inconclusive call do not appear.

Test system: M. tuberculosis H37Rv growth inhibition, 7H9 media
Test: M. tuberculosis growth inhibition, HTS (AID 449762);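 note: bacterial growth assessed after seven days of incubation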
Conditions: for IC90: measured here: IC90 growth inhibition

O=C(NCc1nnnn1-c1ccc(F)cc1)c1ccc([N+](=O)[O-])o1
pIC50: 4.78 | IC90: 74.1 µM

O=C(NC1CCCC(C(F)(F)F)C1)c1ccc([N+](=O)[O-])o1 (stereo not given)
pIC50: 5.57 | IC90: 12.3 µM

CCOc1ccc(NC(=O)c2sc3nc(C)nc(N4CCOCC4)c3c2C)cc1
pIC50: 4.45 | IC90: 61.3 µM

NC(=O)N=Nc1c2[nH]c3ccccc3nc-2c2ccccc12
pIC50: 5.36 | IC90: 7.08 µM

OCCCNc1cc(-c2ccnc(Nc3cccc(Cl)c3)n2)ccn1
pIC50: 4.68 | IC90: 45 µM

CNc1ccc2nc3ccccc3[n+](C)c2c1
pIC50: 5.89 | IC90: 2.34 µM

O=c1c(C=Nc2ccc(Oc3ccccc3)cc2)c[nH]n1-c1cccc(Cl)n1
pIC50: 4.97 | IC90: > 100 µM

O=c1c2ccccc2nc(/C=C/c2ccccc2)n1-c1ccc(O)cc1
IC90: > 100 µM

CC(C)c1nnc(NC(=O)CCC(=O)N2CCN(c3ccc(Cl)cc3)CC2)s1
pIC50: 4.93 | IC90: 29.5 µM

COc1ccc(-c2nnn(CC(=O)OC3CCCCC3)n2)cc1OC
pIC50: 5.24 | IC90: 62.7 µM

O=C(NNc1nc2ccccc2s1)c1ccccc1F
pIC50: 4.65 | IC90: > 100 µM

CCOC(=O)CSc1nnc(-c2ccc(S(=O)(=O)NCc3cccs3)cc2)o1
pIC50: 5.59 | IC90: 4.55 µM

CCOc1cc(/C=C2\COc3ccccc3C2=O)cc(Br)c1OCC(=O)N(C)C
pIC50: 5.56 | IC90: 6.63 µM

CCN1/C(=C/c2ccc3cc(C)ccc3[n+]2CC)Sc2ccccc21
pIC50: 5.85 | IC90: 1.61 µM

Cc1ccc(S(=O)(=O)NC(CC(C)C)C(=O)N2CCN(C/C=C/c3ccccc3)CC2)cc1 (stereo not given)
pIC50: 4.33 | IC90: 52.7 µM

O=c1cc(O)c2sc3nc(-c4cccnc4)cc(C(F)(F)F)c3c2[nH]1
pIC50: 4.81 | IC90: 35.6 µM

O=C(Nc1ccc(Cl)cc1)N(C1=NCCC1)c1ccc(OC(F)F)cc1
pIC50: 4.46 | IC90: 70.9 µM

COc1ccc(OCC(=O)Nc2c(C(=O)N(CCN(C)C)Cc3ccco3)oc3ccccc23)cc1
pIC50: 4.60 | IC90: 27.5 µM

CS(=O)(=O)c1nc(-c2ccccc2)cc(C(F)(F)F)n1
pIC50: 5.18 | IC90: 18.7 µM

Cc1ccsc1/C=C1\SC(N2CCOCC2)=NC1=O
pIC50: 4.66 | IC90: 34.1 µM

CCOC(=O)CSc1nc(N)c(C(=O)Nc2ccc(N(C)C)cc2)s1
pIC50: 5.98 | IC90: 5.82 µM

Cc1occc1-c1nnc(SCC(=O)NCCc2ccccc2)o1
pIC50: 5.01 | IC90: 20 µM

C=CCOc1ccc2c(c1)C(=NO)c1cc(OCC=C)ccc1-2
pIC50: 5.24 | IC90: 9.27 µM

Nc1c(C(=O)NC2CCCCC2)nsc1C(=O)OCC(=O)NC1CCCCC1
pIC50: 5.73 | IC90: 6.02 µM

Cc1ccc(CNC(=O)c2sc3nc4c(c(C(F)(F)F)c3c2N)CCC4)cc1
pIC50: 4.45 | IC90: 50.9 µM

CCCOc1ccc(-c2cnc(SCC(N)=O)nc2N)cc1
pIC50: 4.92 | IC90: 50.2 µM

CCCCS(=O)(=O)/C=C\C=C/S(=O)(=O)CCCC
pIC50: 5.87 | IC90: 1.96 µM

N#Cc1cccc(NC(=O)N2CCC(c3nc4c(nnn4Cc4cccc(Cl)c4)c(=O)[nH]3)CC2)c1
pIC50: 4.91 | IC90: 13.5 µM

O=C(O)C1CC=CCC1C(=O)N1CCN(c2nc(-c3ccccc3Cl)c3cc(Br)ccc3n2)CC1 (stereo not given)
pIC50: 4.33 | IC90: 78.5 µM

Cc1cc(-c2cc(-c3ccccc3)on2)nc(NC2CCCC2)n1
pIC50: 4.34 | IC90: 53.9 µM

O=C(NCCc1ccc(Cl)cc1)c1ccc(CS(=O)Cc2ccc(Cl)cc2)o1 (stereo not given)
pIC50: 4.42 | IC90: 49.1 µM

Cc1ccc(O)c(C(=O)CC(=O)c2ccccc2Cl)c1
pIC50: 4.97 | IC90: 40.1 µM

Cc1c(Cl)cccc1-c1ccc(CNCc2ccccn2)o1
pIC50: 6.15 | IC90: 4.03 µM

CC1Cc2cc(-c3csc(NC(=O)Cc4cccs4)n3)ccc2N1S(C)(=O)=O (stereo not given)
pIC50: 4.98 | IC90: 38 µM

Cc1ccc(/C=C(\NC(=O)c2ccc(C)cc2)c2nc(=S)[nH][nH]2)cc1
pIC50: 4.40 | IC90: 48.9 µM

Clc1ccc2c(c1)C(c1ccccc1Cl)=NCc1nnc(N3CCN(CCOc4ccccc4)CC3)n1-2
pIC50: 4.37 | IC90: 48 µM

CCOC(=O)c1nnc(-c2ccccc2)nc1NCc1ccccc1
pIC50: 4.84 | IC90: > 100 µM

Cc1cccc(C2=N/C(=C\c3cccs3)C(=O)O2)c1
pIC50: 5.57 | IC90: 15.5 µM

Cc1ccc(-c2csc3nc4c5ccccc5c(NCCCN5CCOCC5)nn4c(=O)c23)cc1
pIC50: 4.61 | IC90: 27.7 µM

CN1C(=O)N(C)c2ccc(C=O)c3cccc1c23
pIC50: 4.39 | IC90: 57.2 µM

CC(C)OC(=O)CCCCCN1C(=O)CSC1=S
pIC50: 5.46 | IC90: 8.17 µM

Cc1ccc(-c2ccc(C3C(C#N)=C(N)Oc4n[nH]c(C)c43)o2)cc1 (stereo not given)
pIC50: 4.61 | IC90: 52 µM

CCOC(=O)COn1c2c(c3c4no[n+]([O-])c4ccc31)CCCC2
pIC50: 5.50 | IC90: 5.83 µM

Cc1c(Cl)ccc2sc(N3CCN(C(=O)C4=COCCO4)CC3)nc12
pIC50: 4.58 | IC90: 59 µM

NNc1nc2ccc(Cl)cc2s1
pIC50: 4.37 | IC90: 46.6 µM

CCOC(=O)N1CCC(N2Cc3cccc(C(=O)Nc4ccc(N(CC)CC)cc4C)c3C2=O)CC1
pIC50: 4.35 | IC90: 50.5 µM

COc1ccc(C2=NN(C(=O)COC(=O)c3ccc(S(C)(=O)=O)c([N+](=O)[O-])c3)C(c3ccco3)C2)cc1 (stereo not given)
pIC50: 5.18 | IC90: 14.9 µM

O=C(Nc1nc2nc(-c3ccccc3)cc(=O)n2[nH]1)c1ccccc1
pIC50: 4.75 | IC90: > 100 µM

CN1CCN(c2c(F)cc3c(=O)c(C(=O)O)cn4c3c2OCN4C)CC1
pIC50: 6.14 | IC90: 0.8 µM

CCOC(=O)CSc1snnc1-c1ccccc1
pIC50: 4.86 | IC90: 59.6 µM

Cc1nc(Nc2ccc(Cl)c(Cl)c2)sc1C(=O)Nc1ccccc1
pIC50: 4.72 | IC90: > 100 µM

NCCCn1c(C(=O)c2ccc(Cl)cc2)c2ccc([N+](=O)[O-])cc2[n+]1[O-]
pIC50: 4.62 | IC90: 32.3 µM

CC(C)CNc1nnnc2c1sc1nc(N3CCOCC3)c3c(c12)CC(C)(C)SC3
pIC50: 4.13 | IC90: > 100 µM

S=C(NN=C1CCN(Cc2ccccc2)CC1)NC1CCCCC1
pIC50: 4.78 | IC90: 25.3 µM

CN1CC=C(/C=C/c2ccc(-c3ccccc3)cc2)CC1
pIC50: 4.70 | IC90: 26.9 µM

CCCCn1cnc2c(c(-c3ccccc3)c(-c3ccccc3)n2Cc2ccco2)c1=N
pIC50: 4.12 | IC90: 97.4 µM

COc1ccc(C2CC(=O)c3cnc(Nc4cc(C)cc(C)c4)nc3C2)cc1 (stereo not given)
pIC50: 4.91 | IC90: 22.4 µM

Cc1ccc2nc3c(cc(C(=O)NCc4ccco4)c(=N)n3Cc3ccco3)c(=O)n2c1
pIC50: 4.50 | IC90: > 100 µM

COc1ccc(-c2ccc(OC)c([C@H]3[C@@H]4C=CCC[C@@]4(C)C(=O)N3Cc3ccccc3)c2)cc1OC
pIC50: 4.88 | IC90: 24.8 µM

Cc1cccc(/C=C/C(=O)c2ccc([N+](=O)[O-])o2)c1
pIC50: > 6.70 | IC90: < 0.2 µM

CCOc1ccc(NCc2cccn2-c2nnc(N3CCC(C(=O)NCCCN4C(C)CCCC4C)CC3)s2)cc1 (stereo not given)
pIC50: 4.14 | IC90: 90.9 µM

CCCN(CCC)CCNC(=O)c1cc2c(-c3ccc(Cl)cc3)nn(C)c2s1
pIC50: 4.71 | IC90: 27.7 µM

CCNC(=S)NN=C1c2ccccc2-c2ccccc21
pIC50: 4.95 | IC90: 12.7 µM
